Laboratory results reported in ChEMBL document CHEMBL1938327, “Thiazolides as novel antiviral agents. 2. Inhibition of hepatitis C virus replication” (J Med Chem, 2011).

system: not listed separately; experiment: Selectivity index, ratio of CC50 for human Ava5 cells to EC50 for HCV genotype 1b infected in human Ava5 cells; conditions: not given

| Compound | Ratio CC50/EC50 |
| --- | --- |
| O=C(Nc1ncc(Br)s1)c1ccccc1O | 20 |
| CC(=O)Oc1ccccc1C(=O)Nc1cccc(F)c1 | 26 |
| COC(=O)c1ccc(NC(=O)c2ccccc2OC(C)=O)cc1 | 76 |
| O=C(Nc1nc(-c2ccccc2)cs1)c1ccccc1O | 7.4 |
| O=C(Nc1ccccc1Cl)c1ccccc1O | 19 |
| CC(=O)Oc1ccc(C)cc1C(=O)Nc1ncc(Br)s1 | 3.3 |
| O=C(Nc1cc(C(F)(F)F)ccc1Cl)c1ccccc1O | 65.2 |
| N#Cc1cnc(NC(=O)c2ccccc2O)s1 | 4.1 |
| O=C(Nc1ncc(Br)s1)c1cccc(Cl)c1O | 2.7 |

system: not listed separately; experiment: Cytotoxicity against human Ava5 cells after 3 days by neutral red dye assay; assay type: cell-based; conditions: not given

| Compound | CC50 at 72 h [µM] |
| --- | --- |
| O=C(Nc1ncc(Cl)s1)c1ccccc1O | 15 |
| CC(=O)Oc1ccccc1C(=O)Nc1nc(C(F)(F)F)cs1 | 2.8 |
| CC(=O)Nc1cnc(NC(=O)c2ccccc2O)s1 | 11 |
| Cc1nc(NC(=O)c2ccccc2O)sc1Br | 15 |
| O=C(Nc1ncc(F)s1)c1ccccc1O | 24 |
| Cc1ccc(C(=O)Nc2ncc(Cl)s2)c(O)c1 | 30 |
| O=C(Nc1ncc(Br)s1)c1ccccc1O | 20 |
| CC(=O)Oc1ccccc1C(=O)Nc1cccc(F)c1 | > 100 |
| Cc1ccc(O)c(C(=O)Nc2ncc(Cl)s2)c1 | 2.3 |
| CCOC(=O)c1cnc(NC(=O)c2ccccc2O)s1 | 14 |
| COC(=O)c1ccc(NC(=O)c2ccccc2OC(C)=O)cc1 | 4.4 |
| O=C(Nc1nc(-c2ccccc2)cs1)c1ccccc1O | 14 |
| O=C(Nc1ccccc1Cl)c1ccccc1O | 72 |
| CC(=O)Oc1ccc(C)cc1C(=O)Nc1ncc(Br)s1 | 10 |
| CS(=O)(=O)c1ccc(NC(=O)c2ccccc2O)cc1 | > 100 |
| O=C(Nc1cc(C(F)(F)F)ccc1Cl)c1ccccc1O | 0.33 |
| N#Cc1cnc(NC(=O)c2ccccc2O)s1 | 15 |
| O=C(Nc1ncc(Br)s1)c1cccc(Cl)c1O | 10 |

system: Hepatitis C virus; experiment: Antiviral activity against HCV genotype 1b infected in Ava5 cells assessed as inhibition of viral replication after 3 days by blot hybridization analysis; assay type: functional, organism-based, Hepacivirus hominis; conditions: Ava5, 72 h

| Compound | EC50 [µM] | EC90 [µM] |
| --- | --- | --- |
| O=C(Nc1ncc(Cl)s1)c1ccccc1O | 10 | 10 |
| CC(=O)Oc1ccccc1C(=O)Nc1nc(C(F)(F)F)cs1 | > 10 | > 10 |
| CC(=O)Nc1cnc(NC(=O)c2ccccc2O)s1 | > 10 | > 10 |
| Cc1nc(NC(=O)c2ccccc2O)sc1Br | > 10 | > 10 |
| O=C(Nc1ncc(F)s1)c1ccccc1O | > 10 | > 10 |
| Cc1ccc(C(=O)Nc2ncc(Cl)s2)c(O)c1 | > 10 | > 10 |
| O=C(Nc1ncc(Br)s1)c1ccccc1O | 4.9 | 10 |
| CC(=O)Oc1ccccc1C(=O)Nc1cccc(F)c1 | 3.8 | 11 |
| Cc1ccc(O)c(C(=O)Nc2ncc(Cl)s2)c1 | > 10 | > 10 |
| CCOC(=O)c1cnc(NC(=O)c2ccccc2O)s1 | > 10 | > 10 |
| COC(=O)c1ccc(NC(=O)c2ccccc2OC(C)=O)cc1 | 0.06 | 0.46 |
| O=C(Nc1nc(-c2ccccc2)cs1)c1ccccc1O | > 3.5 | ≥ 10 |
| O=C(Nc1ccccc1Cl)c1ccccc1O | 3.8 | 21 |
| CC(=O)Oc1ccc(C)cc1C(=O)Nc1ncc(Br)s1 | 3 | 7.8 |
| CS(=O)(=O)c1ccc(NC(=O)c2ccccc2O)cc1 | > 10 | > 10 |
| O=C(Nc1cc(C(F)(F)F)ccc1Cl)c1ccccc1O | 0.01 | 0.03 |
| N#Cc1cnc(NC(=O)c2ccccc2O)s1 | > 10 | > 10 |
| O=C(Nc1ncc(Br)s1)c1cccc(Cl)c1O | > 5.2 | > 10 |

system: Canis familiaris; experiment: Drug metabolism in dog assessed as glucurono-conjugate formation at 1 mg/kg, iv after 2 hrs; assay type: ADME, organism-based, Canis lupus familiaris; design: dose 1 mg/kg, route intravenous; conditions: in vivo

| Compound | Drug metabolism |
| --- | --- |
| Cc1ccc(O)c(C(=O)Nc2ncc(Cl)s2)c1 | Active |

system: not listed separately; experiment: Selectivity index, ratio of CC50 for human Huh7.5 cells to EC50 for HCV genotype 1a infected in human Huh7.5 cells; design: species or system Huh-7; conditions: not given

| Compound | Ratio CC50/EC50 |
| --- | --- |
| O=C(Nc1ncc(Br)s1)c1ccccc1O | 31.4 |
| CC(=O)Oc1ccc(C)cc1C(=O)Nc1ncc(Br)s1 | 3.7 |

system: not listed separately; experiment: Cytotoxicity against human Huh7.5 cells after 3 days by neutral red dye assay; assay type: cell-based, Huh-7; conditions: not given

| Compound | CC50 at 72 h [µM] |
| --- | --- |
| O=C(Nc1ncc(F)s1)c1ccccc1O | 2.9 |
| O=C(Nc1ncc(Br)s1)c1ccccc1O | 88 |
| Cc1ccc(O)c(C(=O)Nc2ncc(Cl)s2)c1 | 16 |
| O=C(Nc1nc(-c2ccccc2)cs1)c1ccccc1O | 29 |
| CC(=O)Oc1ccc(C)cc1C(=O)Nc1ncc(Br)s1 | 11 |
| N#Cc1cnc(NC(=O)c2ccccc2O)s1 | 11 |
| O=C(Nc1ncc(Br)s1)c1cccc(Cl)c1O | 11 |

system: Hepatitis C virus; experiment: Antiviral activity against HCV genotype 1a infected in Huh7.5 cells assessed as inhibition of viral replication after 3 days by blot hybridization analysis; assay type: functional, organism-based, Hepacivirus hominis; conditions: subtype 1a, Huh7.5, 72 h

| Compound | EC50 [µM] | EC90 [µM] |
| --- | --- | --- |
| O=C(Nc1ncc(F)s1)c1ccccc1O | > 10 | > 10 |
| O=C(Nc1ncc(Br)s1)c1ccccc1O | 2.8 | 9.4 |
| Cc1ccc(O)c(C(=O)Nc2ncc(Cl)s2)c1 | 10 | 10 |
| O=C(Nc1nc(-c2ccccc2)cs1)c1ccccc1O | > 10 | > 10 |
| CC(=O)Oc1ccc(C)cc1C(=O)Nc1ncc(Br)s1 | 3 | 8.6 |
| N#Cc1cnc(NC(=O)c2ccccc2O)s1 | > 10 | > 10 |
| O=C(Nc1ncc(Br)s1)c1cccc(Cl)c1O | > 10 | > 10 |

system: not listed separately; experiment: Aqueous solubility of the compound; assay type: physicochemical; conditions: buffer

| Compound | solubility |
| --- | --- |
| CC(=O)Oc1ccccc1C(=O)Nc1nc(C(F)(F)F)cs1 | soluble |

system: Canis familiaris; experiment: Drug metabolism in dog assessed as deactyl derivative formation at 1 mg/kg, iv after 1 hr; assay type: ADME, organism-based, Canis lupus familiaris; design: dose 1 mg/kg, route intravenous; conditions: in vivo

| Compound | Drug metabolism |
| --- | --- |
| Cc1ccc(O)c(C(=O)Nc2ncc(Cl)s2)c1 | Active |
